Laboratory results taken from PMC11234063, “Eugenol and lidocaine inhibit voltage-gated Na^+ channels from dorsal root ganglion neurons with different mechanisms” (Frontiers in Pharmacology, 2024).
Where “and” joins values, the source holds several entries; their conditions need not be identical. Identical values can stand only once. Like-named read-outs stand apart in the source and are kept apart here.

What was measured:
[1] = test system: TTX-R INa (VGSCs of DRG neurons); assay: Voltage dependence of Na+ conductance activation (I-V and G-V curves), TTX-R INa; type: cell-based, rat; settings: EUG 2 mM, LID 1 mM
[2] = test system: TTX-R INa (VGSCs of DRG neurons); type: cell-based, rat; settings: EUG 2 mM, LID 1 mM
[3] = test system: total INa (VGSCs of DRG neurons); assay: INa inactivation time constants during test pulse, total INa; type: cell-based, rat
[4] = test system: persistent total INa (DRG neurons); assay: Persistent total INa at the end of 50-ms depolarizing pulses; type: cell-based, rat; settings: EUG 2 mM, LID 1 mM
[5] = test system: TTX-R INa (VGSCs of DRG neurons); type: cell-based, rat
[6] = test system: TTX-R INa (VGSCs of DRG neurons); type: cell-based, rat; settings: EUG 2 mM, LID 1 mM; remark: listed apart in the source
[7] = test system: total INa (VGSCs of DRG neurons); settings: EUG 2 mM, LID 1 mM
VGSCs = test system: VGSCs; design: method as in Clarkson et al., 1988; Sheets et al., 2010; settings: 10-s conditioning pulse; ref Clarkson et al., 1988; Sheets et al., 2010; cited from earlier work
[8] = test system: total INa (VGSCs of DRG neurons); assay: Steady-state inactivation, 100-ms conditioning pre-pulses, total INa; type: cell-based, rat; settings: EUG 2 mM, LID 1 mM
[9] = test system: total INa (VGSCs naturally expressed on dorsal root ganglion sensory neurons); assay: Dose–response inhibition of total INa peak, whole-cell patch clamp; type: cell-based, rat
[10] = test system: TTX-R INa (VGSCs of DRG neurons); assay: Slow inactivation entry, three-pulse protocol, TTX-R INa; type: cell-based, rat
[11] = test system: total INa (VGSCs of DRG neurons); assay: Voltage dependence of Na+ conductance activation (I-V and G-V curves), total INa; type: cell-based, rat; settings: EUG 2 mM, LID 1 mM
[12] = test system: total INa (VGSCs of DRG neurons); assay: Inhibition in depolarization time series at 2 and 5 Hz, total INa; type: cell-based, rat; settings: EUG 2 mM, LID 1 mM
[13] = test system: total INa (VGSCs of DRG neurons); assay: Slow inactivation entry, three-pulse protocol, total INa; type: cell-based, rat
[14] = test system: TTX-R INa (VGSCs of DRG neurons); type: cell-based, rat; remark: listed apart in the source
[15] = individual cells, during exposure to EUG 2 mM or LID 1 mM

CCN(CC)CC(=O)Nc1c(C)cccc1C [LID, lidocaine]
Max slope-act [1]: 7.6 ± 0.84 (n = 9) mV/e-fold
V1/2-act [1]: −15.3 ± 3.51 (n = 9) ns mV
Max slope-act in individual cells ([1]; individual cells): 2.416 mV/efold and 6.095 mV/efold and 7.402 mV/efold and 6.184 mV/efold and 9.974 mV/efold and 8.405 mV/efold and 10.98 mV/efold and 7.92 mV/efold and 8.84 mV/efold
V1/2-act in individual cells ([1]; individual cells): 2.959 mV and -9.166 mV and -6.571 mV and -19.84 mV and -6.716 mV and -25.02 mV and -21.81 mV and -25.87 mV and -25.3 mV
Fractional inhibition, 2 Hz, 1st pulse [2]: 0.40 ± 0.025 (n = 8)
Fractional inhibition, 2 Hz, 20th pulse [2]: 0.55 ± 0.040 (n = 8)
Fractional inhibition, 5 Hz, 1st pulse [2]: 0.37 ± 0.027 (n = 7)
Fractional inhibition, 5 Hz, 20th pulse [2]: 0.64 ± 0.054 (n = 7)
Fractional current after blockade, 2 Hz, 1st pulse, individual cells ([2]; individual cells): 0.58 and 0.49 and 0.64 and 0.53 and 0.56 and 0.59 and 0.67 and 0.68
Fractional current after blockade, 2 Hz, 20th pulse, individual cells ([2]; individual cells): 0.3 (2×) and 0.5 and 0.51 and 0.46 and 0.57 and 0.50 and 0.41
Fractional current after blockade, 5 Hz, 1st pulse, individual cells ([2]; individual cells): 0.55 and 0.51 and 0.68 (2×) and 0.62 and 0.69
Fractional current after blockade, 5 Hz, 20th pulse, individual cells ([2]; individual cells): 0.18 and 0.15 and 0.34 and 0.50 and 0.42
Effect on inactivation time constants [3]: unaffected
Inhibition of persistent total INa after 50-ms depolarization [4]: fails to inhibit
Hill coefficient [5]: 0.67 ± 0.088
Reversibility of inhibition after drug washout [5]: fully reversible
Dose response curves' data, Average (fractional current) ([5]; drug at 0.01 mM): 0.82
Dose response curves' data, Average (fractional current) ([5]; drug at 0.1 mM): 0.78
Dose response curves' data, Average (fractional current) ([5]; drug at 0.3 mM): 0.55
Dose response curves' data, Average (fractional current) ([5]; drug at 1 mM): 0.38
Dose response curves' data, Average (fractional current) ([5]; drug at 3 mM): 0.26
Dose response curves' data, Average (fractional current) ([5]; drug at 10 mM): 0.06
Dose response curves' data, Average (fractional current) ([5]; drug at 30 mM): 0.00
IC50 ([5]; holding −110 mV, test +20 mV, read-out: IC50): 440 ± 87 µM
Time series of INa blockade, Average (normalized current) ([5]; time 15 sec, drug exposure): 0.700
Time series of INa blockade, Average (normalized current) ([5]; time 20 sec, drug exposure): 0.688
Time series of INa blockade, Average (normalized current) ([5]; time 25 sec, drug exposure): 0.698
Time series of INa blockade, Average (normalized current) ([5]; time 30 sec, recovery): 0.954
Time series of INa blockade, Average (normalized current) ([5]; time 35 sec, recovery): 0.981
Time series of INa blockade, Average (normalized current) ([5]; time 40 sec, recovery): 1.000
Shift of the steady-state inactivation curve, on average ([6]; 100-ms conditioning pulse): −4 mV
Max slope-inact [6]: −7.2 ± 1.24 (n = 9) ns mV/e-fold
V1/2-inact [6]: −32.6 ± 2.86 (n = 9) mV
Max slope-inact in individual cells ([6]; individual cells): -4.454 mV/efold and -5.078 mV/efold and -4.311 mV/efold and -4.855 mV/efold and -12.65 mV/efold and -5.321 mV/efold and -10.59 mV/efold and -13.14 mV/efold and -5.017 mV/efold
V1/2-inact in individual cells ([6]; individual cells): -13.3 mV and -32.45 mV and -43.07 mV and -41.77 mV and -33.88 mV and -29.54 mV and -30.3 mV and -34.82 mV and -34 mV
Time constant of the inhibiting effect increase with P1 duration at −70 mV [7]: 709 ms and ~700 ms
Shift of the available curve (VGSCs): 10 mV
Shift of the steady-state inactivation curve, on average ([8]; 100-ms conditioning pulse): −5 mV
Max slope-inact [8]: −10.2 ± 0.50 (n = 6) ns mV/e-fold
V1/2-inact [8]: −50.6 ± 3.04 (n = 6) mV
Max slope-inact in individual cells ([8]; individual cells): -10.01 mV/efold and -11.35 mV/efold and -9.163 mV/efold and -11.45 mV/efold and -10.7 mV/efold
V1/2-inact in individual cells ([8]; individual cells): -42.62 mV and -59.61 mV and -54.7 mV and -48.47 mV and -56.32 mV
Pre-inhibition of total INa ([9]; LID at 0.5 mM): 25%
Reversibility of inhibition after drug washout ([9]; total INa): fully reversible
Dose response curves' data, Average (fractional current), LID (EUG 1.3 mM) ([9]; total INa, LID 0.1 mM in the presence of EUG 1.3 mM): 0.98
Dose response curves' data, Average (fractional current), LID (EUG 1.3 mM) ([9]; total INa, LID 0.3 mM in the presence of EUG 1.3 mM): 0.63
Dose response curves' data, Average (fractional current), LID (EUG 1.3 mM) ([9]; total INa, LID 1 mM in the presence of EUG 1.3 mM): 0.45
Dose response curves' data, Average (fractional current), LID (EUG 1.3 mM) ([9]; total INa, LID 3 mM in the presence of EUG 1.3 mM): 0.19
Dose response curves' data, Average (fractional current), LID (EUG 1.3 mM) ([9]; total INa, LID 10 mM in the presence of EUG 1.3 mM): 0.08
Hill coefficient ([9]; total INa, drug alone): 1 and 1.02 ± 0.169
Dose response curves' data, Average (fractional current) ([9]; total INa, drug at 0.001 mM): 1.00
Dose response curves' data, Average (fractional current) ([9]; total INa, drug at 0.03 mM): 0.95
Dose response curves' data, Average (fractional current) ([9]; total INa, drug at 0.1 mM): 0.89
Dose response curves' data, Average (fractional current) ([9]; total INa, drug at 0.3 mM): 0.79
Dose response curves' data, Average (fractional current) ([9]; total INa, drug at 1 mM): 0.67
Dose response curves' data, Average (fractional current) ([9]; total INa, drug at 3 mM): 0.29
Dose response curves' data, Average (fractional current) ([9]; total INa, drug at 10 mM): 0.09
IC50 ([9]; total INa, holding −110 mV, test +20 mV, drug alone, read-out: IC50): 1420 ± 169 µM
Time series of INa blockade, Average (normalized current) ([9]; total INa, time 15 sec, drug exposure): 0.63
Time series of INa blockade, Average (normalized current) ([9]; total INa, time 20 sec, drug exposure): 0.63
Time series of INa blockade, Average (normalized current) ([9]; total INa, time 25 sec, drug exposure): 0.63
Time series of INa blockade, Average (normalized current) ([9]; total INa, time 30 sec, recovery): 0.99
Time series of INa blockade, Average (normalized current) ([9]; total INa, time 35 sec, recovery): 1.01
Time series of INa blockade, Average (normalized current) ([9]; total INa, time 40 sec, recovery): 1.01
Fast inactivation entry time constant ([10]; EUG 2 mM, LID 1 mM): 33.05 ± 11.57 ms
Fractional current when P1 = 2 m ([10]; EUG 2 mM, LID 1 mM): 0.76 ± 0.049
Percent fast component (slow inactivation entry) ([10]; EUG 2 mM, LID 1 mM): 35.03 ± 6.913%
Slow inactivation entry time constant ([10]; EUG 2 mM, LID 1 mM): 287.01 ± 49.765 s
Slow inactivation state entry kinetics of INa, individual cells [10, 15]: 210.90 and 156.80 and 90.580 and 123.40 and 113.30
Max slope-act [11]: 5.4 ± 0.55 (n = 5) mV/e-fold
V1/2-act [11]: −15.6 ± 1.87 (n = 5) ns mV
Max slope-act in individual cells ([11]; individual cells): 3.305 mV/efold and 5.718 mV/efold and 5.241 mV/efold and 6.129 mV/efold and 6.443 mV/efold
V1/2-act in individual cells ([11]; individual cells): -10.84 mV and -17.68 mV and -19.58 mV and -11.29 mV and -18.64 mV
Fractional inhibition, 2 Hz, 1st pulse [12]: 0.46 ± 0.034 (n = 7)
Fractional inhibition, 2 Hz, 20th pulse [12]: 0.54 ± 0.044 (n = 7)
Fractional inhibition, 5 Hz, 1st pulse [12]: 0.47 ± 0.021 (n = 5)
Fractional inhibition, 5 Hz, 20th pulse [12]: 0.81 ± 0.055 (n = 5)
Fractional current after blockade, 2 Hz, 1st pulse, individual cells ([12]; individual cells): 0.42 and 0.6 and 0.65 and 0.46 and 0.55 and 0.48 and 0.66
Fractional current after blockade, 2 Hz, 20th pulse, individual cells ([12]; individual cells): 0.57 and 0.34 and 0.45 and 0.42 and 0.58 and 0.31 and 0.51
Fractional current after blockade, 5 Hz, 1st pulse, individual cells ([12]; individual cells): 0.73 and 0.48 and 0.51 (2×) and 0.60
Fractional current after blockade, 5 Hz, 20th pulse, individual cells ([12]; individual cells): 0.53 and 0.06 and 0.07 and 0.25 and 0.26
Fast inactivation entry time constant ([13]; EUG 2 mM, LID 1 mM): 25.04 ± 10.996 ms
Fractional current when P1 = 2 m ([13]; EUG 2 mM, LID 1 mM): 0.62 ± 0.067
Percent fast component (slow inactivation entry) ([13]; EUG 2 mM, LID 1 mM): 59.86 ± 4.320 %
Slow inactivation entry time constant ([13]; EUG 2 mM, LID 1 mM): 292.87 ± 117.879 s
Slow inactivation state entry kinetics of INa, individual cells [13, 15]: 84.13 and 39.12 and 7.878 and 39.45 and 54.65
Effect on inactivation time constants [14]: unaffected
